Earlier results in US12253532B2, “Mass spectrometric quantitation assay for metabolites of leflunomide” (Quest Diagnostics Investments LLC, priority 2010, dated 2025).
Where two headings read alike, the source gives them in different places.

- Mean steady state plasma concentration of teriflunomide (patients on daily dosage of 5 mg leflunomide): about 8800 ng/mL
- Mean steady state plasma concentration of teriflunomide (patients on daily dosage of 10 mg leflunomide): ~18,000 ng/mL
- Mean steady state plasma concentration of teriflunomide (patients on daily dosage of 25 mg leflunomide): ~63,000 ng/mL
SMILES: CC(O)=C(C#N)C(=O)Nc1ccc(C(F)(F)F)cc1 [teriflunomide, 2-cyano-3-hydroxy-N-(4-trifluoromethylphenyl)-2-butenamide]
